{
  "source": "the NIST ThermoML archive (doi:10.1016/j.jct.2013.01.004)",
  "test": "molar heat capacity at constant pressure",
  "conditions": "101.33 kPa, Crystal, Thin-film microcalorimeter",
  "note": "± gives the expanded uncertainty stated by the source.",
  "data": [
    {"smiles": "[O-2].[Zn+2]", "note": "[zinc(II) oxide]", "values": [
      {"measurement": "molar heat capacity at constant pressure", "setting": "1 K", "result": "6e-05 ± 5e-06", "unit": "J/K/mol"},
      {"measurement": "molar heat capacity at constant pressure", "setting": "1.906 K", "result": "0.0004 ± 0.0001", "unit": "J/K/mol"},
      {"measurement": "molar heat capacity at constant pressure", "setting": "2 K", "result": "0.0004 ± 0.0001", "unit": "J/K/mol"},
      {"measurement": "molar heat capacity at constant pressure", "setting": "2.105 K", "result": "0.0005 ± 0.0001", "unit": "J/K/mol"},
      {"measurement": "molar heat capacity at constant pressure", "setting": "2.329 K", "result": "0.0007 ± 0.0001", "unit": "J/K/mol"},
      {"measurement": "molar heat capacity at constant pressure", "setting": "2.579 K", "result": "0.0009 ± 0.0001", "unit": "J/K/mol"},
      {"measurement": "molar heat capacity at constant pressure", "setting": "2.856 K", "result": "0.0013 ± 0.0001", "unit": "J/K/mol"},
      {"measurement": "molar heat capacity at constant pressure", "setting": "3 K", "result": "0.0015 ± 0.0001", "unit": "J/K/mol"},
      {"measurement": "molar heat capacity at constant pressure", "setting": "3.169 K", "result": "0.0018 ± 0.0001", "unit": "J/K/mol"},
      {"measurement": "molar heat capacity at constant pressure", "setting": "3.509 K", "result": "0.0024 ± 0.0001", "unit": "J/K/mol"},
      {"measurement": "molar heat capacity at constant pressure", "setting": "3.893 K", "result": "0.0033 ± 0.0002", "unit": "J/K/mol"},
      {"measurement": "molar heat capacity at constant pressure", "setting": "4 K", "result": "0.0036 ± 0.0002", "unit": "J/K/mol"},
      {"measurement": "molar heat capacity at constant pressure", "setting": "4.319 K", "result": "0.0045 ± 0.0002", "unit": "J/K/mol"},
      {"measurement": "molar heat capacity at constant pressure", "setting": "4.794 K", "result": "0.0062 ± 0.0003", "unit": "J/K/mol"},
      {"measurement": "molar heat capacity at constant pressure", "setting": "5 K", "result": "0.007 ± 0.0003", "unit": "J/K/mol"},
      {"measurement": "molar heat capacity at constant pressure", "setting": "5.322 K", "result": "0.0085 ± 0.0004", "unit": "J/K/mol"},
      {"measurement": "molar heat capacity at constant pressure", "setting": "5.907 K", "result": "0.0115 ± 0.0005", "unit": "J/K/mol"},
      {"measurement": "molar heat capacity at constant pressure", "setting": "6 K", "result": "0.0121 ± 0.0005", "unit": "J/K/mol"},
      {"measurement": "molar heat capacity at constant pressure", "setting": "6.557 K", "result": "0.0158 ± 0.0006", "unit": "J/K/mol"},
      {"measurement": "molar heat capacity at constant pressure", "setting": "7 K", "result": "0.0193 ± 0.0008", "unit": "J/K/mol"},
      {"measurement": "molar heat capacity at constant pressure", "setting": "7.279 K", "result": "0.0217 ± 0.0009", "unit": "J/K/mol"},
      {"measurement": "molar heat capacity at constant pressure", "setting": "8 K", "result": "0.0288 ± 0.0012", "unit": "J/K/mol"},
      {"measurement": "molar heat capacity at constant pressure", "setting": "8.084 K", "result": "0.0296 ± 0.0012", "unit": "J/K/mol"},
      {"measurement": "molar heat capacity at constant pressure", "setting": "8.978 K", "result": "0.0409 ± 0.0017", "unit": "J/K/mol"},
      {"measurement": "molar heat capacity at constant pressure", "setting": "9 K", "result": "0.0414 ± 0.0017", "unit": "J/K/mol"},
      {"measurement": "molar heat capacity at constant pressure", "setting": "9.969 K", "result": "0.0573 ± 0.0023", "unit": "J/K/mol"},
      {"measurement": "molar heat capacity at constant pressure", "setting": "10 K", "result": "0.0577 ± 0.0012", "unit": "J/K/mol"},
      {"measurement": "molar heat capacity at constant pressure", "setting": "11 K", "result": "0.0785 ± 0.0016", "unit": "J/K/mol"},
      {"measurement": "molar heat capacity at constant pressure", "setting": "11.07 K", "result": "0.0803 ± 0.0017", "unit": "J/K/mol"},
      {"measurement": "molar heat capacity at constant pressure", "setting": "12 K", "result": "0.1048 ± 0.0022", "unit": "J/K/mol"},
      {"measurement": "molar heat capacity at constant pressure", "setting": "12.3 K", "result": "0.1145 ± 0.0024", "unit": "J/K/mol"},
      {"measurement": "molar heat capacity at constant pressure", "setting": "13 K", "result": "0.1378 ± 0.0029", "unit": "J/K/mol"},
      {"measurement": "molar heat capacity at constant pressure", "setting": "13.64 K", "result": "0.1629 ± 0.0034", "unit": "J/K/mol"},
      {"measurement": "molar heat capacity at constant pressure", "setting": "14 K", "result": "0.1786 ± 0.0037", "unit": "J/K/mol"},
      {"measurement": "molar heat capacity at constant pressure", "setting": "15 K", "result": "0.2282 ± 0.0047", "unit": "J/K/mol"},
      {"measurement": "molar heat capacity at constant pressure", "setting": "15.18 K", "result": "0.237 ± 0.0049", "unit": "J/K/mol"},
      {"measurement": "molar heat capacity at constant pressure", "setting": "16 K", "result": "0.2876 ± 0.0059", "unit": "J/K/mol"},
      {"measurement": "molar heat capacity at constant pressure", "setting": "16.82 K", "result": "0.3415 ± 0.007", "unit": "J/K/mol"},
      {"measurement": "molar heat capacity at constant pressure", "setting": "17 K", "result": "0.3576 ± 0.0073", "unit": "J/K/mol"},
      {"measurement": "molar heat capacity at constant pressure", "setting": "18 K", "result": "0.439 ± 0.009", "unit": "J/K/mol"},
      {"measurement": "molar heat capacity at constant pressure", "setting": "18.66 K", "result": "0.5019 ± 0.01", "unit": "J/K/mol"},
      {"measurement": "molar heat capacity at constant pressure", "setting": "19 K", "result": "0.5323 ± 0.011", "unit": "J/K/mol"},
      {"measurement": "molar heat capacity at constant pressure", "setting": "20 K", "result": "0.6378 ± 0.013", "unit": "J/K/mol"},
      {"measurement": "molar heat capacity at constant pressure", "setting": "20.68 K", "result": "0.718 ± 0.015", "unit": "J/K/mol"},
      {"measurement": "molar heat capacity at constant pressure", "setting": "22.98 K", "result": "1.028 ± 0.021", "unit": "J/K/mol"},
      {"measurement": "molar heat capacity at constant pressure", "setting": "25 K", "result": "1.349 ± 0.027", "unit": "J/K/mol"},
      {"measurement": "molar heat capacity at constant pressure", "setting": "25.55 K", "result": "1.448 ± 0.029", "unit": "J/K/mol"},
      {"measurement": "molar heat capacity at constant pressure", "setting": "28.39 K", "result": "1.989 ± 0.04", "unit": "J/K/mol"},
      {"measurement": "molar heat capacity at constant pressure", "setting": "30 K", "result": "2.327 ± 0.047", "unit": "J/K/mol"},
      {"measurement": "molar heat capacity at constant pressure", "setting": "31.54 K", "result": "2.658 ± 0.053", "unit": "J/K/mol"},
      {"measurement": "molar heat capacity at constant pressure", "setting": "35 K", "result": "3.48 ± 0.07", "unit": "J/K/mol"},
      {"measurement": "molar heat capacity at constant pressure", "setting": "35.05 K", "result": "3.48 ± 0.07", "unit": "J/K/mol"},
      {"measurement": "molar heat capacity at constant pressure", "setting": "38.93 K", "result": "4.451 ± 0.089", "unit": "J/K/mol"},
      {"measurement": "molar heat capacity at constant pressure", "setting": "40 K", "result": "4.713 ± 0.094", "unit": "J/K/mol"},
      {"measurement": "molar heat capacity at constant pressure", "setting": "43.22 K", "result": "5.533 ± 0.11", "unit": "J/K/mol"},
      {"measurement": "molar heat capacity at constant pressure", "setting": "45 K", "result": "5.965 ± 0.12", "unit": "J/K/mol"},
      {"measurement": "molar heat capacity at constant pressure", "setting": "48.01 K", "result": "6.726 ± 0.14", "unit": "J/K/mol"},
      {"measurement": "molar heat capacity at constant pressure", "setting": "50 K", "result": "7.218 ± 0.14", "unit": "J/K/mol"},
      {"measurement": "molar heat capacity at constant pressure", "setting": "53.32 K", "result": "8.042 ± 0.16", "unit": "J/K/mol"},
      {"measurement": "molar heat capacity at constant pressure", "setting": "55 K", "result": "8.463 ± 0.17", "unit": "J/K/mol"},
      {"measurement": "molar heat capacity at constant pressure", "setting": "59.21 K", "result": "9.463 ± 0.19", "unit": "J/K/mol"},
      {"measurement": "molar heat capacity at constant pressure", "setting": "60 K", "result": "9.606 ± 0.19", "unit": "J/K/mol"},
      {"measurement": "molar heat capacity at constant pressure", "setting": "65 K", "result": "10.71 ± 0.21", "unit": "J/K/mol"},
      {"measurement": "molar heat capacity at constant pressure", "setting": "65.75 K", "result": "10.92 ± 0.22", "unit": "J/K/mol"},
      {"measurement": "molar heat capacity at constant pressure", "setting": "70 K", "result": "11.8 ± 0.24", "unit": "J/K/mol"},
      {"measurement": "molar heat capacity at constant pressure", "setting": "73.03 K", "result": "12.44 ± 0.25", "unit": "J/K/mol"},
      {"measurement": "molar heat capacity at constant pressure", "setting": "75 K", "result": "12.85 ± 0.26", "unit": "J/K/mol"},
      {"measurement": "molar heat capacity at constant pressure", "setting": "80 K", "result": "13.87 ± 0.28", "unit": "J/K/mol"},
      {"measurement": "molar heat capacity at constant pressure", "setting": "81.09 K", "result": "14.11 ± 0.28", "unit": "J/K/mol"},
      {"measurement": "molar heat capacity at constant pressure", "setting": "85 K", "result": "14.86 ± 0.3", "unit": "J/K/mol"},
      {"measurement": "molar heat capacity at constant pressure", "setting": "90 K", "result": "15.83 ± 0.32", "unit": "J/K/mol"},
      {"measurement": "molar heat capacity at constant pressure", "setting": "90.06 K", "result": "15.91 ± 0.32", "unit": "J/K/mol"},
      {"measurement": "molar heat capacity at constant pressure", "setting": "95 K", "result": "16.77 ± 0.34", "unit": "J/K/mol"},
      {"measurement": "molar heat capacity at constant pressure", "setting": "99.87 K", "result": "17.65 ± 0.35", "unit": "J/K/mol"},
      {"measurement": "molar heat capacity at constant pressure", "setting": "100 K", "result": "17.69 ± 0.35", "unit": "J/K/mol"},
      {"measurement": "molar heat capacity at constant pressure", "setting": "110 K", "result": "19.46 ± 0.39", "unit": "J/K/mol"},
      {"measurement": "molar heat capacity at constant pressure", "setting": "110.46 K", "result": "19.47 ± 0.39", "unit": "J/K/mol"},
      {"measurement": "molar heat capacity at constant pressure", "setting": "120 K", "result": "21.16 ± 0.42", "unit": "J/K/mol"},
      {"measurement": "molar heat capacity at constant pressure", "setting": "120.49 K", "result": "21.17 ± 0.42", "unit": "J/K/mol"},
      {"measurement": "molar heat capacity at constant pressure", "setting": "130 K", "result": "22.78 ± 0.46", "unit": "J/K/mol"},
      {"measurement": "molar heat capacity at constant pressure", "setting": "130.48 K", "result": "22.84 ± 0.46", "unit": "J/K/mol"},
      {"measurement": "molar heat capacity at constant pressure", "setting": "140 K", "result": "24.34 ± 0.49", "unit": "J/K/mol"},
      {"measurement": "molar heat capacity at constant pressure", "setting": "140.63 K", "result": "24.44 ± 0.49", "unit": "J/K/mol"},
      {"measurement": "molar heat capacity at constant pressure", "setting": "150 K", "result": "25.82 ± 0.52", "unit": "J/K/mol"},
      {"measurement": "molar heat capacity at constant pressure", "setting": "150.79 K", "result": "25.91 ± 0.52", "unit": "J/K/mol"},
      {"measurement": "molar heat capacity at constant pressure", "setting": "160 K", "result": "27.24 ± 0.54", "unit": "J/K/mol"},
      {"measurement": "molar heat capacity at constant pressure", "setting": "160.85 K", "result": "27.33 ± 0.55", "unit": "J/K/mol"}
    ]}
  ]
}
